Measurements published in patent US8614240B2, “Benzoxazole derivatives having inhibitory activity against interleukin-6, preparation method thereof, and pharmaceutical composition containing the same” (EWHA University-Industry Collaboration Foundation, priority 2010, dated 2013).
Like-named read-outs stand apart in the source and are kept apart here.

Assays:
[1] = tested on: IL-6 reactive STAT3 reporter gene; assay: IL-6 reactive STAT3 reporter gene test (pSTAT3-TA-Luc6 luciferase) in HepG2 cells; assay type: cell-based; conditions: Homo sapiens
Protocol: A pSTAT3-TA-Luc6 construct, which comprises 8 more STAT3 DNA binding sequence copies as compared to pSTAT-3-TA-Luc and thus, enables to better reflect STAT3 reporter gene assay, was prepared. STAT3 DNA binding sequence was amplified using pSTAT3-TA-Luc plasmid (Clontech, Palo Alto, Calif.) as the template, and oligonucleotide ([…]. SEQ ID NO: 1 (containing Kpn I site)) and oligonucleotide ([…] GAAGCAACGTTC (containing Xho I site)) as forward primer and reverse primer, respectively, by means of a thermocycler. The amplified PCR product was cloned, separated, and then inserted into Kpn I/Xho I site of pSTAT3-TA-Luc plasmid.
Human hepatoma cell line, HepG2 cell, was incubated in MEM (Minimal Essential Medium, WelGENE Inc, Daegu, Korea) medium under water-saturated condition at 37° C., 5% CO2. To this medium was added 10% (v/v) fetal bovine serum, streptomycin (100 U/mL) and penicillin (100 U/mL). 6-Well cell culture plate was allowed to grow cells up to 80%, and then the specimen was pre-treated for one hour. Then, the medium was changed into 50 μL of serum-free medium, and the mixed solution of 0.1 μL pSTAT3-TA-Luc6 construct and 0.3 μL lipofectamin reagent was added to each well and then allowed to react for 3 hours to transfect cells with pSTAT3-TA-Luc6 construct. The medium was changed to a fresh medium, and the plate was incubated for 24 hours to transiently transfect cells. The transfected cells were serum-starved with 1% BSA/DMEM, and treated with the samples for one hour and then, after adding IL-6, incubated for 3 hours. The mixture was washed with PBS, shaken for one minute with addition of 50 μL of lysis buffer (promega luciferase assay system). After adding 30-100 μL of luciferase substrate (Promega luciferase assay system), the mixture was measured by a luminometer within 5 minutes.
Among others Compounds 1 and 3 as the materials having high inhibitory effect on IL-6 activity were used at various concentration to measure the degree of inhibitory effect, and the results thereof are as shown in FIGS. 2 and 3.

Respective cell lines = assay: Cytotoxicity assay (MTT); assay type: cell-based; conditions: 48 hours
Protocol: In testing the compounds in cell lines, if cells are killed due to a toxicity of the compounds at the treatment concentration, a significant result cannot be obtained. Therefore, the toxicity assay was conducted by treatment with the compounds as follows. Respective cell lines were maintained on 96-well cell culture plate in the medium comprising 10% FBS with 1% Penicillin G/streptomycin, and then incubated under 37° C., 5% CO2 condition. All the experiments were repeated three times. The samples were properly diluted, and then cells were treated with the diluted samples at the concentrations of 1, 3, 10, 30, 100 μg/ml. After 48 hours, 10% (v/v) 5 mg/mL 3-(4,5-dimethylthiazol-2-yl)-2,5-diphenyltetrazolium bromide (MTT; Sigma) was added to the cell culture. After 3 hours of the incubation, the medium was aspirated and washed with PBS. After adding DMSO (100 μl), the mixture was gently agitated for 5 minutes. The absorbance was measured at 570 nm by means of VERSA max microplate reader (Molecular Devices Inc.), and the average absorbance (±SE) values as obtained from three experiments were compared with t-test, a statistical significance of P<0.05. When Compounds 1 and 3 were used at the concentrations of 1, 3, 10, 30, 100 μg/ml, the survival rates of cells were 94, 76, 70, 67, 30%, respectively, by the treatment with Compound 1, and 74, 71, 65, 57, 19%, respectively, by the treatment with Compound 3. It means that at least 50% of cells survive at the concentration (for example, 30 μg/ml) of the compounds of the present invention for measuring IL-6 inhibitory activity.

[2] = tested on: IL-6 induced STAT3 phosphorylation; assay: Test for inhibitory activity against STAT3 phosphorylation induced by IL-6 (Western blot, HepG2); assay type: cell-based, human; conditions: HepG2, 1, 3, 10, 30, 100 ug/ml, 10 ng/ml IL-6 (FIG. 4)
Protocol: HepG2 cells were divisionally inoculated in 6-well plate in the ratio of 5×10^4 cells/well, and grown to be 80% confluent. After changing to a serum-free medium and incubating for 6 hours, cells were pre-treated with the samples for one hour. […] Then the mixture was centrifuged (13,000×g, 15 minutes) to obtain a lysate as the supernatant. Herein, HepG2 cells not treated with IL-6 and the samples were used as the control group. The concentration of proteins was quantified by means of Bio-Rad DC protein assay kit, and the protein was loaded on 10% SDS-polyacrylamide gel (SDS-PAGE) and electrophoresed at 30 mA for 2 hours. After completion of the electrophoresis, the protein on gel was transcribed into PVDF membrane (Westran® S, pore size […]) at 90V for 90 minutes, and the transcribed membrane was blocked with Tris-buffered solution (T-TBS; 50 mM Tri-HCl, pH 7.6, 150 mM NaCl, 0.2% Tween-20, 5% skim milk) at 4° C. for 12 hours, and washed five time with T-TBS. The membrane was treated with polyclonal antibodies of phospho-STAT3 (1:1000 dilutions, respectively) as the primary antibody for 2 hours. After washing five times with T-TBS, the membrane was reacted with HRP-conjugated anti-rabbit antibody (1:5000 dilutions) as the secondary antibody for one hour. After washing with T-TBS, the film was developed in the dark room by means of ECL.

[3] = tested on: IL-6 induced ERK phosphorylation; assay: Test for inhibitory activity against ERK phosphorylation induced by IL-6 (Western blot, HepG2); assay type: cell-based, human; conditions: HepG2, 30 μg/ml (FIG. 5)
Protocol: HepG2 cell was divisionally inoculated in 6-well plate, and then starved for 18 hours.
The starved cells were treated with the samples for one hour, and then stimulated with IL-6 or LIF (Upstate Biotechnology, USA) for 10 minutes. The specimen was treated with 5× cell lysis buffer (Promega) sometimes with vortexing under ice for 30 minutes. The cell lysate obtained as described under B in Experiment 1 (3) was dissolved in 8% SDS-PAGE gel, and transferred to the nitrocellulose membrane. This membrane was blocked with Tris-buffered solution (50 mM Tris-HCl (pH 7.4), 150 mM NaCl, 0.1% Tween 20) containing 5% non-fat dry milk at 4° C. Then, it was incubated together with an appropriate primary antibody (ERK) present in Tris-buffered solution (50 mM Tris-HCl (pH 7.4), 150 mM NaCl, 0.1% Tween 20) containing 5% non-fat dry milk, at room temperature for 1-2 hours. This membrane was washed five times with TBS buffer solution for 10 minutes, and incubated with 1:6000 diluted horseradish peroxidase-conjugated secondary antibodies for one hour. The membrane was washed 10 times with TBS buffer solution, and then mixed and incubated with the 1:1 mixture of HRP Substrate Luminol Reagent and HRP Substrate Peroxide Solution as ELC reagent (Millipore Corp. Ma USA). The chemiluminescent signals were visualized with X-ray film.

[4] = HepG2, 20 ug/ml of sample, HepG2 cells, read-out: Inhibition % of IL-6 reactive STAT3 reporter gene activity

| SMILES | melting point | inhibition at 20 µg/mL [1, 4] | also measured |
| --- | --- | --- | --- |
| CCc1ccc(Nc2nc3cc(N)ccc3o2)cc1 [Compound 1, N^2-(4-ethylphenyl)benzo[d]oxazole-2,5-diamine] |  | 97% | IC50 ([1]; HepG2 cells, various concentrations (FIGS. 2 and 3), read-out: IC50 of IL-6 inhibitory activity (STAT3 reporter gene)): 18.9 µM; Survival rate of cells (Respective cell lines; 1 μg/ml): 94%; Survival rate of cells (Respective cell lines; 3 μg/ml): 76%; Survival rate of cells (Respective cell lines; 10 μg/ml): 70%; Survival rate of cells (Respective cell lines; 30 μg/ml): 67%; Survival rate of cells (Respective cell lines; 100 μg/ml): 30%; Inhibitory activity on IL-6 induced STAT3 phosphorylation [2]: inhibited IL-6 expression in a concentration-dependent manner; Influence on IL-6 induced ERK phosphorylation [3]: did not influence on ERK phosphorylation |
| CCc1ccc(Nc2nc3cc(NC(=O)Cc4ccccc4)ccc3o2)cc1 [Compound 2, N-(2-(4-ethylphenylamino)benzo[d]oxazol-5-yl)-2-phenylacetamide] | > 250 °C | 61.7% |  |
| CCc1ccc(Nc2nc3cc(NC(=O)c4cc([N+](=O)[O-])ccc4Cl)ccc3o2)cc1 [Compound 6, 2-chloro-N-(2-(4-ethylphenylamino)benzo[d]oxazol-5-yl)-5-nitrobenzamide] |  | 65.6% |  |
| CCc1ccc(Nc2nc3cc(NC(=O)c4ccc(Cl)c(Cl)c4)ccc3o2)cc1 [Compound 7, 3,4-dichloro-N-(2-(4-ethylphenylamino)-benzo[d]oxazol-5-yl)benzamide] |  | 69.3% |  |
| CCc1ccc(Nc2nc3cc(NC(=O)c4cccc(CCl)c4)ccc3o2)cc1 [Compound 8, 3-(chloromethyl)-N-(2-(4-ethylphenyl-amino)benzo[d]oxazol-5-yl)benzamide] |  | > 80% |  |
| CCc1ccc(Nc2nc3cc(NC(=O)c4cc(F)cc(C(F)(F)F)c4)ccc3o2)cc1 [Compound 10, N-(2-(4-ethylphenylamino)benzo[d]oxazol-5-yl)-3-fluoro-5-(trifluoromethyl)benzamide] | > 250 °C | 50.2% |  |
| CCOc1ccccc1C(=O)Nc1ccc2oc(Nc3ccc(CC)cc3)nc2c1 [Compound 11, 2-ethoxy-N-(2-(4-ethylphenylamino)-benzo[d]oxazol-5-yl)benzamide] | 181.6 to 182 °C | 58% |  |
| CCc1ccc(Nc2nc3cc(NC(=O)c4ccc(C(C)(C)C)cc4)ccc3o2)cc1 [Compound 12, 4-tert-butyl-N-(2-(4-ethylphenylamino)-benzo[d]oxazol-5-yl)benzamide] |  | > 80% |  |
| CCc1ccc(Nc2nc3cc(NC(=O)c4cc(OC)c(OC)c(OC)c4)ccc3o2)cc1 [Compound 14, N-(2-(4-ethylphenylamino)benzo[d]oxazol-5-yl)-3,4,5-trimethoxybenzamide] | > 250 °C |  | inhibition at 20 µg/mL ([1]; HepG2, read-out: Inhibition % of IL-6 reactive STAT3 reporter gene activity, 20 ug/ml of sample, HepG2 cells): > 80% |
| CCc1ccc(Nc2nc3cc(NC(=O)c4ccccc4Nc4cccc(C(F)(F)F)c4)ccc3o2)cc1 [Compound 16, N-(2-(4-ethylphenylamino)benzo[d]oxazol-5-yl)-2-(3-(trifluoromethyl)phenylamino)benzamide] | 174 to 176 °C | > 80% |  |

More lines, main results first:

| melting point | SMILES | inhibition at 20 µg/mL [1, 4] | also measured |
| --- | --- | --- | --- |
| > 250 °C | CCc1ccc(Nc2nc3cc(NC(=O)c4ccc(Cl)cc4)ccc3o2)cc1 [Compound 4, 4-chloro-N-(2-(4-ethylphenylamino)benzo[d]oxazol-5-yl)benzamide] | 12.1% |  |
| > 250 °C | CCc1ccc(Nc2nc3cc(NC(=O)c4ccc([N+](=O)[O-])cc4Cl)ccc3o2)cc1 [Compound 5, 2-chloro-N-(2-(4-ethylphenylamino)benzo[d]oxazol-5-yl)-4-nitrobenzamide] | 20% |  |
| > 250 °C | CCc1ccc(Nc2nc3cc(NC(=O)c4ccc(CC)cc4)ccc3o2)cc1 [Compound 9, 4-ethyl-N-(2-(4-ethylphenylamino)benzo[d]oxazol-5-yl)benzamide] | 63.3% |  |
| > 250 °C | CCc1ccc(Nc2nc3cc(NC(=O)c4ccc(OC)c(OC)c4)ccc3o2)cc1 [Compound 13, N-(2-(4-ethylphenylamino)benzo[d]oxazol-5-yl)-3,4-dimethoxybenzamide] | 26.2% |  |
| 244.8 to 246 °C | CCCCCCCc1ccc(C(=O)Nc2ccc3oc(Nc4ccc(CC)cc4)nc3c2)cc1 [Compound 15, N-(2-(4-ethylphenylamino)benzo[d]oxazol-5-yl)-4-heptylbenzamide] | 57.2% |  |
